# Laboratory results reported in ChEMBL document CHEMBL3991601, “The target landscape of clinical kinase drugs” (Science, 2017).
# pKd: −log10 of the molar value. Calls of active or inactive are those of the source.
# Tests used:
# [1] = biological target: T1, Cysteine--tRNA ligase, cytoplasmic (Homo sapiens, UniProt P49589)
# T1 sequence (P49589 whole entry): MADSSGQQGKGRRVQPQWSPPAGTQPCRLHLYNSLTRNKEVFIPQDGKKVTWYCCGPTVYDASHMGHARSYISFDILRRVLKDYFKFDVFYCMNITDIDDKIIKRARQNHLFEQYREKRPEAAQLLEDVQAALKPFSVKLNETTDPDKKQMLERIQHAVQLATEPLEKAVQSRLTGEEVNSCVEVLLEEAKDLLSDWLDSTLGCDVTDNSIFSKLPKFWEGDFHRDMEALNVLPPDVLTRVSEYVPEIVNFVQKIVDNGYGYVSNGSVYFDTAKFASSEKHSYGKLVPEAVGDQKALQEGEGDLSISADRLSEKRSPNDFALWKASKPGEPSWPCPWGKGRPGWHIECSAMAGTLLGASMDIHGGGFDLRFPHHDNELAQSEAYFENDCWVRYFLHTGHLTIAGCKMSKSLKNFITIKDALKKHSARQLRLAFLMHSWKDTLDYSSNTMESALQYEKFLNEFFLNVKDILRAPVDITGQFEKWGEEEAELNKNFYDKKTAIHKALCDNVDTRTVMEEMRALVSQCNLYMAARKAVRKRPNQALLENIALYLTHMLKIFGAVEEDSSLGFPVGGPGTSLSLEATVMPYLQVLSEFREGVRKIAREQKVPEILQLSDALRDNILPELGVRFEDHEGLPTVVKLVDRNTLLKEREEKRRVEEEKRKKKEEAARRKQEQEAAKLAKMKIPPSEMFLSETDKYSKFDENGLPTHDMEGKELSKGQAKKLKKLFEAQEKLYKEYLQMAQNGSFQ
# [2] = biological target: T2, ATP-dependent RNA helicase DDX42 (Homo sapiens, UniProt Q86XP3)
# T2 sequence (Q86XP3 whole entry): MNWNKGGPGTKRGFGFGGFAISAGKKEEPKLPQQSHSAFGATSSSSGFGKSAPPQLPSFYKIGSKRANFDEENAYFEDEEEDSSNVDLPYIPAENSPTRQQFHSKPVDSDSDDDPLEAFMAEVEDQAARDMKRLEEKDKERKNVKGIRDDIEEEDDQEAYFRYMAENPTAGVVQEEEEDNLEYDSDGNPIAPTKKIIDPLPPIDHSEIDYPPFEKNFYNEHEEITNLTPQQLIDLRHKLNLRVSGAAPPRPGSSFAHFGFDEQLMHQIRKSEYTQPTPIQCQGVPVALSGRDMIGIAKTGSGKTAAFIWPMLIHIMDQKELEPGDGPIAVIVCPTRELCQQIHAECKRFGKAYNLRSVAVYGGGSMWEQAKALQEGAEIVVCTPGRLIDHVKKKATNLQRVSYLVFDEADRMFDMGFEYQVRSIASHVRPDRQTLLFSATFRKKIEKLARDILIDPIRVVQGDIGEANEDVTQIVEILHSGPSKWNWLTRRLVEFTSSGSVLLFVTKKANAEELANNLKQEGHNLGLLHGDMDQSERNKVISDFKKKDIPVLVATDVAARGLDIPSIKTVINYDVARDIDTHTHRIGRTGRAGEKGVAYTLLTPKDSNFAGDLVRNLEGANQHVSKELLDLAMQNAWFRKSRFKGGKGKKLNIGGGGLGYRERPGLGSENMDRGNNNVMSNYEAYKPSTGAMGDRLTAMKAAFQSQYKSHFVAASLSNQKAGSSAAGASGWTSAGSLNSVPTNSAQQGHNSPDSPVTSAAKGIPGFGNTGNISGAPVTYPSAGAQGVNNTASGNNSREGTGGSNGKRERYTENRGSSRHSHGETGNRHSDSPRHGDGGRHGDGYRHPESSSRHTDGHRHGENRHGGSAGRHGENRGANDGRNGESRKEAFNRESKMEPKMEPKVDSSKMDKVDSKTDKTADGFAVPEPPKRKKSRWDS
# Ephrin type-A receptor 7 = Ephrin type-A receptor 7 (Homo sapiens, UniProt Q15375)
# [3] = biological target: Insulin-like growth factor 1 receptor (Homo sapiens, UniProt P08069)
# [4] = biological target: Inosine-5'-monophosphate dehydrogenase 2 (Homo sapiens, UniProt P12268)
# [5] = biological target: T3, Serine/threonine-protein kinase NLK (Homo sapiens, UniProt Q9UBE8)
# T3 sequence (Q9UBE8 whole entry): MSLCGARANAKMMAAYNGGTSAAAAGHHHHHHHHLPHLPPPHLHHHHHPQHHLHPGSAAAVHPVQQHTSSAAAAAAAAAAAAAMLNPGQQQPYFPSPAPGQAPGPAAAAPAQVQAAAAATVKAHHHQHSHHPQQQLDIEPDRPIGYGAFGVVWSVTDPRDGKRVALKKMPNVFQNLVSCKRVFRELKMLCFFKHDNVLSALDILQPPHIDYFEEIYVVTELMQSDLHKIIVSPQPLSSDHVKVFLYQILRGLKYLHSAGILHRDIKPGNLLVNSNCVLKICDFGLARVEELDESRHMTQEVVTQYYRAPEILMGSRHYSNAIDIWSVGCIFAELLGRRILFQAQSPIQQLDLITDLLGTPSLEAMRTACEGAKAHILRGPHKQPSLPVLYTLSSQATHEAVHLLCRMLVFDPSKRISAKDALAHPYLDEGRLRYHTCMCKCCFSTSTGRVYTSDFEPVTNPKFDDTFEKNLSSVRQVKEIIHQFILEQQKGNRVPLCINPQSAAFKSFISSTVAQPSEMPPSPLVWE
# [6] = biological target: cAMP-dependent protein kinase type II-alpha regulatory subunit (Homo sapiens, UniProt P13861)
# [7] = biological target: Protein kinase C theta type (Homo sapiens, UniProt Q04759)
# Also: in the data inactive means no Kd found up to 30 µM.
# Chain of cAMP-dependent protein kinase type II-alpha regulatory subunit (P13861 whole entry): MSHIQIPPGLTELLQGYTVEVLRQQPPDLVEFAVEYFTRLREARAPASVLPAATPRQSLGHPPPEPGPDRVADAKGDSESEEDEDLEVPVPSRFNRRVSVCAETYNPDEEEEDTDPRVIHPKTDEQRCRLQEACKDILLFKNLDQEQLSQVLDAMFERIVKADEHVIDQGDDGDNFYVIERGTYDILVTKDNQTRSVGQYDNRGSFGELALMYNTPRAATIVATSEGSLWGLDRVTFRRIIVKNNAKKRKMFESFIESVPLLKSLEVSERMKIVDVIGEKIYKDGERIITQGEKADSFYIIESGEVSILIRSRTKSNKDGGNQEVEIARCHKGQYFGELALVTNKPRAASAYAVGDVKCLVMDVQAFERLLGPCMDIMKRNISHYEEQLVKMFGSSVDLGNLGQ
# Chain of Protein kinase C theta type (Q04759 whole entry): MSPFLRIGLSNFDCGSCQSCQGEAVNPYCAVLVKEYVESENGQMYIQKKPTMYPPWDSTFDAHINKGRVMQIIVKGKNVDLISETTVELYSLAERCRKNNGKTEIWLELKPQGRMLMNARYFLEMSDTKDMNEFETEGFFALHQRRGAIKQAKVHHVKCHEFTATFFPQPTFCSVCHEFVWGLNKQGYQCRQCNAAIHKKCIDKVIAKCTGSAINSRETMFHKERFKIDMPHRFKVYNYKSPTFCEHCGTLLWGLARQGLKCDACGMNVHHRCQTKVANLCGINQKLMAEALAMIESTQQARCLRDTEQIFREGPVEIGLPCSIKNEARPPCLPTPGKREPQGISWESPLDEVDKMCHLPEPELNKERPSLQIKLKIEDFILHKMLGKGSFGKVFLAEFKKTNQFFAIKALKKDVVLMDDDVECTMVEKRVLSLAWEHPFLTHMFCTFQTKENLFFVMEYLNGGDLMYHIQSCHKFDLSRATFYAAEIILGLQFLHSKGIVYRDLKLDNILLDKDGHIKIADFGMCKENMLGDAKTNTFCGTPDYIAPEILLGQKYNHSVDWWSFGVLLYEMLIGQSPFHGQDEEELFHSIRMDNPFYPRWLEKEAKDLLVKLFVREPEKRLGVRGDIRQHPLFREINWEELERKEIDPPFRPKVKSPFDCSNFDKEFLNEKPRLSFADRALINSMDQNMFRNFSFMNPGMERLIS
# Chain of Ephrin type-A receptor 7 (Q15375 whole entry): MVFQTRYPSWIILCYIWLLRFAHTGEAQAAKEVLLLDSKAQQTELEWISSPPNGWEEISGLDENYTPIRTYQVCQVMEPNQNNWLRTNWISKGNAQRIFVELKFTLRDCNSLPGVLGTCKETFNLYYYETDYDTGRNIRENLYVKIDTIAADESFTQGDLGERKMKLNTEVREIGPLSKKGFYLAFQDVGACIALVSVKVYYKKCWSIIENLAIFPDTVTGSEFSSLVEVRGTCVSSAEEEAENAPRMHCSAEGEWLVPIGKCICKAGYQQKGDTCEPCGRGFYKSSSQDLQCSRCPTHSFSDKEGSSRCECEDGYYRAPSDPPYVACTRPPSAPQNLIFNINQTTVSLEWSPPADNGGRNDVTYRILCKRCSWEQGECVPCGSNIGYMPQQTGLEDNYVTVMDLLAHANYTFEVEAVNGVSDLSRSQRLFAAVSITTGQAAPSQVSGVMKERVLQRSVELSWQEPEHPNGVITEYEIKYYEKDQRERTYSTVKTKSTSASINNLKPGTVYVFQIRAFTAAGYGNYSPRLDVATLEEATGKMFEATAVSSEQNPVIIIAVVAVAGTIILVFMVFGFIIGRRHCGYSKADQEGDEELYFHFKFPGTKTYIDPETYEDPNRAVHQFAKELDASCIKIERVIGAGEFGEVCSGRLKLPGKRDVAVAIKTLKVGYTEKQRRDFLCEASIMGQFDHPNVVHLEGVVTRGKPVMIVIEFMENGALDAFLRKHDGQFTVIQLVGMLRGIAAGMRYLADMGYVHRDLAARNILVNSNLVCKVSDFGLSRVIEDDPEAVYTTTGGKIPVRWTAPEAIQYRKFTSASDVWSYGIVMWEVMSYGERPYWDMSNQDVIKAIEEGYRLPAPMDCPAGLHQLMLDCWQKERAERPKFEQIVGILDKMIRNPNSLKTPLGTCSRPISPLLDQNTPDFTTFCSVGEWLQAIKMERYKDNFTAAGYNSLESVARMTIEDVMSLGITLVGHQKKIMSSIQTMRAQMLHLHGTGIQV
# Chain of Insulin-like growth factor 1 receptor (P08069 31-736 limits assumed): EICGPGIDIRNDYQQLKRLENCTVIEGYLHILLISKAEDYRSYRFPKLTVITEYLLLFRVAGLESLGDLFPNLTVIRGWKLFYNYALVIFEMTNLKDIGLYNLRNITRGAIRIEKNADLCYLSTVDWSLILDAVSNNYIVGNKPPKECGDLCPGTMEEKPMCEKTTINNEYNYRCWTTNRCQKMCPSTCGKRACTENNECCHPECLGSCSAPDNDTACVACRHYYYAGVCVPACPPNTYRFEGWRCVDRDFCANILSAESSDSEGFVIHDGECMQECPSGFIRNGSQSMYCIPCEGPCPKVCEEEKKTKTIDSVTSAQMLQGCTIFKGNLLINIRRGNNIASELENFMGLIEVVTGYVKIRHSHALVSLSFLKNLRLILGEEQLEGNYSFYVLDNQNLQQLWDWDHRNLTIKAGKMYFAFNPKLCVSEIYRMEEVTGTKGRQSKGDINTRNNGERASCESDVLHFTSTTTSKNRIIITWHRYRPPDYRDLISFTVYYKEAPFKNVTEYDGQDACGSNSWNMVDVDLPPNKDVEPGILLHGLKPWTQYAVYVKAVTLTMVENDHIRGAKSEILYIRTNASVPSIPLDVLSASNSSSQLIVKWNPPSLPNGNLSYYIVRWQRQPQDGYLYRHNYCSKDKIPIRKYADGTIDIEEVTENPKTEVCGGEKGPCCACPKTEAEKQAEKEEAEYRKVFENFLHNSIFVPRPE
# Chain of Insulin-like growth factor 1 receptor (P08069 741-1367 limits assumed): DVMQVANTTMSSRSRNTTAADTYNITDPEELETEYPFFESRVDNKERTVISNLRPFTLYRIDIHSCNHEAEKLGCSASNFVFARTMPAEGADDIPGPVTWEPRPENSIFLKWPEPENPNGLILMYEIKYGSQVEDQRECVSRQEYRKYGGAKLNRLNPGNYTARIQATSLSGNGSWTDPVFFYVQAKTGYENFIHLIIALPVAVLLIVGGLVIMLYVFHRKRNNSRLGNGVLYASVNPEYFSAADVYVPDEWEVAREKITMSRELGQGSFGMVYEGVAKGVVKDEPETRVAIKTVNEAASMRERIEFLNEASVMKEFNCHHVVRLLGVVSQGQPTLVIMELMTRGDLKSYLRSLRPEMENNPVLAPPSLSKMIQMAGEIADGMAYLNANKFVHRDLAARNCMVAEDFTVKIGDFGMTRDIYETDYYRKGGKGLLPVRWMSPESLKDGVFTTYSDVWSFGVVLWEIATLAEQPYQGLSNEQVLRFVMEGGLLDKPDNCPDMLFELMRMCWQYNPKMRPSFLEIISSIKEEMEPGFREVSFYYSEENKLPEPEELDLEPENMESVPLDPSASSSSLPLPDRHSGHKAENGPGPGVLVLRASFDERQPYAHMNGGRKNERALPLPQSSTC
SMILES,Kd [1],Kd [2],Kd (Ephrin type-A receptor 7),Kd [3],Kd [4],Kd [5],Kd [6],Kd [7],pKd (Ephrin type-A receptor 7)
O=c1[nH]ccc2cc(OC3CCNCC3)ccc12 [SAR-407899 FREE BASE],> 30 µM (inactive),> 30 µM (inactive),> 30 µM (inactive),> 30 µM (inactive),> 30 µM (inactive),> 30 µM (inactive),> 30 µM (inactive),> 30 µM (inactive),–
CO[C@H]1C[C@@H]2CC[C@@H](C)[C@@](O)(O2)C(=O)C(=O)N2CCCC[C@H]2C(=O)O[C@H]([C@H](C)C[C@@H]2CC[C@@H](OC(=O)C(C)(CO)CO)[C@H](OC)C2)CC(=O)[C@H](C)/C=C(\C)[C@@H](O)[C@@H](OC)C(=O)[C@H](C)C[C@H](C)/C=C/C=C/C=C/1C [TEMSIROLIMUS],> 30 µM (inactive),> 30 µM (inactive),> 30 µM (inactive),> 30 µM (inactive),> 30 µM (inactive),> 30 µM (inactive),> 30 µM (inactive),> 30 µM (inactive),–
COc1cc2c(Nc3ccc(Cl)c(Cl)c3F)ncnc2cc1OC[C@@H]1C[C@@H]2CN(C)C[C@@H]2C1 [TESEVATINIB],> 30 µM (inactive),> 30 µM (inactive),–,> 30 µM (inactive),> 30 µM (inactive),> 30 µM (inactive),> 30 µM (inactive),> 30 µM (inactive),7.66
O=C(Cc1ccc(-c2ccc(OCCN3CCOCC3)cc2)cn1)NCc1ccccc1 [TIRBANIBULIN],> 30 µM (inactive),> 30 µM (inactive),> 30 µM (inactive),> 30 µM (inactive),> 30 µM (inactive),> 30 µM (inactive),> 30 µM (inactive),> 30 µM (inactive),–
C[C@@H](NC(=O)c1ncnc(N)c1Cl)c1ncc(C(=O)Nc2cc(C(F)(F)F)c(Cl)cn2)s1 [TOVORAFENIB],> 30 µM (inactive),> 30 µM (inactive),> 30 µM (inactive),> 30 µM (inactive),> 30 µM (inactive),> 30 µM (inactive),> 30 µM (inactive),> 30 µM (inactive),–
Cc1cc(Nc2ncnc3ccc(NC4=NC(C)(C)CO4)cc23)ccc1Oc1ccn2ncnc2c1 [TUCATINIB],> 30 µM (inactive),> 30 µM (inactive),> 30 µM (inactive),> 30 µM (inactive),> 30 µM (inactive),> 30 µM (inactive),> 30 µM (inactive),> 30 µM (inactive),–
CN1C/C=C/CCOc2cccc(c2)-c2ccnc(n2)Nc2cccc(c2)C1 [ZOTIRACICLIB],> 30 µM (inactive),> 30 µM (inactive),> 30 µM (inactive),> 30 µM (inactive),> 30 µM (inactive),> 30 µM (inactive),> 30 µM (inactive),> 30 µM (inactive),–
